# Source: paper PMC12766724, “Synthesis, Anthelmintic Activity, and Mechanism of Action of 5‑Aryl‑1H‑indoles” (Journal of Agricultural and Food Chemistry, 2025)
# Experiments:
# [1] = test system: age unsynchronized Ditylenchus destructor; test: Motility on WMicrotracker ONE; assay type: in vivo
# How it was run: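 Age-unsynchronized populations of Ditylenchus destructor were maintained following a previously described protocol. Their motility was measured on the WMicrotracker ONE platform using previously published methods. The instrument scores the activity of small animals by counting how often infrared light microbeams passing through the wells of a microtiter plate are interrupted. Activity was recorded before treatment and during exposure to compounds.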
# [2] = test system: Heterodera schachtii second-stage juveniles (J2); test: Motility on WMicrotracker ONE; assay type: in vivo
# How it was run: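 Second-stage juveniles of H. schachtii, reared on in vitro mustard roots on modified KNOP medium, were exposed to compounds in microtiter wells. Motility was scored as activity counts, i.e. interruptions of infrared microbeams passing through each well.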
# [3] = test system: H. schachtii second-stage juveniles (J2); test: Nematicidal assay with NaOH agitation; assay type: in vivo, Heterodera schachtii; details: 50 µM; 48 h
# Text: To assess the nematicidal effect of compounds on H. schachtii second-stage juveniles (J2), approximately 50 J2 in sterile double-distilled water were transferred into each well of a flat-bottom 96-well plate and exposed to the test compounds or vehicle alone (DMSO 0.2%).
# [4] = test system: human keratinocytes (HaCaT); test: Resazurin assay, 3-day treatment; assay type: cell-based
# [5] = test system: mitochondrial membrane potential of C. elegans young adults; test: Mitochondrial membrane potential measurement; assay type: in vivo, Caenorhabditis elegans; details: 100 μM; 24 h
# Description: After 24 h, the compounds were washed away. Then, the mitochondrial membrane potential was measured using a specialized fluorescent dye (kit MAK147, Sigma-Aldrich). The kit was used according to the manufacturer’s instructions with modified incubation temperature and time (20 °C, 4 h) to account for the fact that living intact worms were used instead of cell cultures. , Dyed worms (approximately 200 per well) were distributed onto a black 96-well plate, and the fluorescence was measured using a Tecan Infinite 200 Pro plate reader.
# Determining the mechanism of action of compounds is always challenging; however, the nature of their effect, as well as the structural similarity to compounds with known properties, can provide useful insights. One of our hypotheses was that the compounds might interfere with energy production. We based this assumption on the behavior of compound-treated worms (delayed development, lower fecundity, and relatively rapid decrease in motility rates but not necessarily death). Impaired mitochondrial function would be accompanied by a decrease in mitochondrial membrane potential (MMP).
# C. elegans = test: DESI-MS detection of compound in nematodes; design: species or system Caenorhabditis elegans
# Description: (§1) For in situ visualization of selected compounds, desorption electrospray ionization mass spectrometry imaging (DESI-MSI) was performed by using a Synapt G2-Si MS instrument coupled to a 2D-DESI source (Waters). The spray solvent (95% MeOH with 0.1% ammonia) was delivered at 2 μL/min and nebulized with […] ultrapure nitrogen on sample slides. The DESI source was optimized as follows: tip-to-surface distance: 1 mm; tip-to-inlet distance: 5 mm; incidence angle: 55°; collection angle: 10°; capillary voltage: 4 kV; cone voltage: […]; mass range: 100–600, with 16 000–17 000 full width at half-maximum (fwhm) mass resolution. Data were acquired in the negative mode using MassLynx software (v4.1, Waters, Milford, MA). Spectra, with a spatial resolution of 30 μm, were acquired every second. All acquired spectra were then recalibrated with the exact mass of the standard compounds and normalized based on root mean square (RMS) intensities. […] DESI-MS/MS was performed on the same sampling area with a 20 eV collision energy scanning of nematodes, and the acquired MS/MS spectra were summarized for the fragmentation ion assignment, and the correct molecular formulas were first calculated using MassLynx software (v4.1) and then identified by their masses acquired from the standard solution. […]
# H. schachtii = test: DESI-MS detection of compound in nematodes; design: species or system Heterodera schachtii
# Description: as §1
# [6] = 10 µM group, initial (prior to the treatment)
# [7] = 50 µM group, initial (prior to the treatment)
# [8] = 100 µM group, initial (prior to the treatment)
SMILES,"average activity counts [1, 6]","average activity counts ([1]; 10 µM, 48 h)","average activity counts ([1]; 10 µM, 72 h)","average activity counts [1, 7]","average activity counts ([1]; 50 µM, 48 h)","average activity counts ([1]; 50 µM, 72 h)","average activity counts [1, 8]","average activity counts ([1]; 100 µM, 48 h)","average activity counts ([1]; 100 µM, 72 h)","average activity counts [2, 6]","average activity counts ([2]; 10 µM, 48 h)","average activity counts ([2]; 10 µM, 72 h)","average activity counts [2, 7]","average activity counts ([2]; 50 µM, 48 h)","average activity counts ([2]; 50 µM, 72 h)","average activity counts [2, 8]","average activity counts ([2]; 100 µM, 48 h)","average activity counts ([2]; 100 µM, 72 h)",Average viability (signal intensity relative to control) ([4]; 10 µM),Average viability (signal intensity relative to control) ([4]; 20 µM),other results
Fc1ccc(-c2ccc3[nH]ccc3c2)cc1 [i-20],215,200,187,223,84,64,226,2,2,165,169,176,174,81,27,180,4,5,0.97 ± 0.01,0.99 ± 0.02,"decrease of mean activity counts ([1]; 100 µM, 72 h): 99%; decrease in mean activity counts ([2]; 100 µM, 72 h): 97%; nematicidal effect after NaOH addition [3]: immobilize worms rather than directly kill them; Average viability (signal intensity relative to control) ([4]; 40 µM): 0.94 ± 0.02"
CCCOc1cccc(-c2ccc3[nH]ccc3c2)c1 [i-12],220,197,218,201,186,202,235,207,202,192,200,158,176,195,136,195,166,177,1.06 ± 0.14,1.09 ± 0.13,Average viability (signal intensity relative to control) ([4]; 40 µM): 1.06 ± 0.09
Clc1ccc(-c2ccc3[nH]ccc3c2)cc1 [i-19],226,227,232,239,85,67,233,113,88,190,179,192,183,90,18,195,121,30,1.01 ± 0.02,1.02 ± 0.05,"decrease of mean activity counts ([1]; 100 µM, 72 h): 62%; decrease in mean activity counts ([2]; 100 µM, 72 h): 85%; nematicidal effect after NaOH addition [3]: immobilize worms rather than directly kill them; Average viability (signal intensity relative to control) ([4]; 40 µM): 0.86 ± 0.1; decrease in viability ([4]; 40 µM): approximately 5%; MMP signal lower than in vehicle-treated control animals [5]: approximately 80%; DESI-MS signal of the compound in nematodes (C. elegans): able to detect signals; DESI-MS signal of the compound in nematodes (H. schachtii): able to detect signals"
CCCOc1ccc(-c2ccc3[nH]ccc3c2)cc1 [i-13],204,200,207,221,211,219,239,211,228,166,159,141,192,183,163,192,144,150,0.97 ± 0.01,0.98 ± 0.02,Average viability (signal intensity relative to control) ([4]; 40 µM): 0.91 ± 0.04; DESI-MS signal of the compound in nematodes (C. elegans): able to detect signals; DESI-MS signal of the compound in nematodes (H. schachtii): able to detect signals
FC(F)(F)Oc1ccc(-c2ccc3[nH]ccc3c2)cc1 [i-21],227,220,183,223,172,139,221,158,94,175,170,146,177,142,102,187,150,104,0.96 ± 0.02,0.96 ± 0.04,"decrease of mean activity counts ([1]; 100 µM, 72 h): 57%; Average viability (signal intensity relative to control) ([4]; 40 µM): 0.74 ± 0.11"
